Experimental data reported in PMC9045243, “Gluconate Kinase Is Required for Gluconate Assimilation and Sporulation in Cryptococcus neoformans” (Microbiology Spectrum, 2022).

Key:
[1] = biological target: T1, CnGnk1 (Gnk1, Gnk1p; formerly IRK3) (Cryptococcus neoformans, UniProt J9VGW6); assay: competition against gluconate, 6PGDH-coupled NADPH absorbance at […] nm; type: biochemical; details: 0.5 mM gluconate, competing sugar 10 mM
T1 construct: gene CNAG_03048
T1 sequence (J9VGW6 1-230): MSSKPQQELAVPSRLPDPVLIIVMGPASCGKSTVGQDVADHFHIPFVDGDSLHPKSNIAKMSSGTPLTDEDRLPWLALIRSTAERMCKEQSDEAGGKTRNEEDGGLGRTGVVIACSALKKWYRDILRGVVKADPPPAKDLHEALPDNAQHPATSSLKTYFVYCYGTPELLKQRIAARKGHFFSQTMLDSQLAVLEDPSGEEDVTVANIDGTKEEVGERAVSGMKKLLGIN

[2] = biological target: T1, CnGnk1 (Gnk1, Gnk1p; formerly IRK3); assay: 6PGDH-coupled NADPH absorbance at […] nm; type: biochemical; details: 1 mM MgCl2, 500 uM NADP+, pH 7.5, 37 C

Row | Compound | % reduction in activity at 10 mM [1] | further results
1 | OC[C@H]1OC(O)[C@H](O)[C@@H](O)[C@@H]1O (some centres unmarked) [glucose] | ~ 40% | –
2 | OC[C@@H](O)[C@@H](O)[C@H](O)[C@H](O)CO [mannitol] | ~ 20% | –
3 | OC[C@H]1OC(O)[C@H](O)[C@@H](O)[C@H]1O (some centres unmarked) [galactose] | ~ 20% | –
4 | O=C(O)[C@H](O)[C@@H](O)[C@H](O)[C@H](O)CO [gluconate] | – | KM (apparent) ([2]; 10 mM ATP): 3.7, 95% CI (2.7, 5.2) mM
5 | Nc1ncnc2c1ncn2[C@@H]1O[C@H](COP(=O)(O)OP(=O)(O)OP(=O)(O)O)[C@@H](O)[C@H]1O [ATP] | – | KM (apparent) ([2]; 10 mM gluconate): 2.6, 95% CI (1.9, 3.7) mM
